# Data as given in publication PMC8225200, “Epipregnanolone as a Positive Modulator of GABAA Receptor in Rat Cerebellar and Hippocampus Neurons” (Biomolecules, 2021).
# Tests used:
# Experiment in all cases: whole-cell patch clamp, GABA-induced chloride current
# Assay type in all cases: cell-based
# [1] = test system: T1, GABAA receptor (native, rat hippocampal CA3 pyramidal neurons); conditions: positive allosteric modulator; 2 µM GABA co-applied; pH 7.4; holding -70 mV
# T1 construct: gene Gabra1; native heteropentameric receptors in acutely isolated CA3 pyramidal neurons; subunit composition not determined
# [2] = test system: T2, GABAA receptor (native, rat cerebellar Purkinje cells); conditions: positive allosteric modulator, 2 µM GABA co-applied, pH 7.4, holding -70 mV
# T2 construct: gene Gabra1; native heteropentameric receptors in acutely isolated Purkinje neurons
# [3] = test system: T2, GABAA receptor (native, rat cerebellar Purkinje cells); conditions: weak inhibition; 2 µM GABA co-applied; pH 7.4; holding -70 mV
compound,measurement,setting,value
"CC(=O)[C@H]1CC[C@H]2[C@@H]3CC[C@@H]4C[C@@H](O)CC[C@]4(C)[C@H]3CC[C@]12C [Epi, 3β-hydroxy-5β-pregnan-20-one]",EC50,[1],9.3 ± 2.9 µM
same,EC50,[2],5.7 ± 1.9 µM
"CC(=O)[C@H]1CC[C@H]2[C@@H]3CC[C@H]4C[C@H](O)CC[C@]4(C)[C@H]3CC[C@]12C [ALLO, 3α-hydroxy-5α-pregnan-20-one]",EC50,[2]; fit to rising phase of bell-shaped curve,0.29 ± 0.06 µM
"CC(=O)[C@H]1CC[C@H]2[C@@H]3CC[C@H]4C[C@@H](O)CC[C@]4(C)[C@H]3CC[C@]12C [Iso, 3β-hydroxy-5α-pregnan-20-one]",% of control current at 100 μM,[3],84 ± 4%
